Data published in US12403137B2, “Compounds and methods of use” (Tango Therapeutics, Inc., priority 2019, dated 2025).

How the values were obtained:
[1] = tested on: HAP1 MTAP-intact cell line; assay: SDMA in-cell western assay, HAP1 MTAP-intact; assay type: cell-based; settings: Homo sapiens
In short: (§1)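 IC50 values come from an SDMA in-cell western run in isogenic HAP1 cells, either MTAP-null or expressing endogenous MTAP. The intact-to-deleted IC50 ratio is used to score MTAP selectivity.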

PRMT5 [2] = biological target: T1, PRMT5 (Homo sapiens, UniProt O14744); assay: PRMT5 inhibition assay with no cofactor; assay type: biochemical; settings: against PRMT5 with no cofactor; read-out: No Co-factor IC50
T1 construct: purchased Viva (custom protein)

[3] = tested on: HAP1 MTAP-deleted cell line; assay: SDMA in-cell western assay, HAP1 MTAP-deleted; assay type: cell-based; settings: for IC50: Homo sapiens, HAP1 MTAP-deleted (MTAP-null) cell line; for MTAP Intact/Deleted Ratio: IC50 ratio HAP1 MTAP-intact / HAP1 MTAP-deleted, >=3 fold considered MTAP-selective
In short: as §1

PRMT5 [4] = biological target: T1, PRMT5; assay: PRMT5 inhibition assay with SAM as cofactor; assay type: biochemical; settings: against PRMT5 in the presence of SAM as cofactor
Description: (§2) The Ki values can be calculated from the IC50 values as described in the Examples section. As detailed in the Examples section, for the assay performed in the presence of SAM, IC50=Ki×1.5 (Ki=IC50/1.5). For the assay performed in the presence of MTA, IC50=Ki×13.5 (Ki=IC50/13.5). Column 6 indicates the ratio between the Ki of compounds in the presence of SAM and the Ki of compounds in the presence of MTA

PRMT5 [5] = biological target: T1, PRMT5; assay: PRMT5 inhibition assay with MTA as cofactor; assay type: biochemical; settings: for IC50: against PRMT5 with MTA as cofactor; for SAM/MTA Ratio: ratio of Ki in the presence of SAM to Ki in the presence of MTA, Ki=IC50/1.5 (SAM), Ki=IC50/13.5 (MTA)
Description: as §2

T1 sequence (O14744 whole entry): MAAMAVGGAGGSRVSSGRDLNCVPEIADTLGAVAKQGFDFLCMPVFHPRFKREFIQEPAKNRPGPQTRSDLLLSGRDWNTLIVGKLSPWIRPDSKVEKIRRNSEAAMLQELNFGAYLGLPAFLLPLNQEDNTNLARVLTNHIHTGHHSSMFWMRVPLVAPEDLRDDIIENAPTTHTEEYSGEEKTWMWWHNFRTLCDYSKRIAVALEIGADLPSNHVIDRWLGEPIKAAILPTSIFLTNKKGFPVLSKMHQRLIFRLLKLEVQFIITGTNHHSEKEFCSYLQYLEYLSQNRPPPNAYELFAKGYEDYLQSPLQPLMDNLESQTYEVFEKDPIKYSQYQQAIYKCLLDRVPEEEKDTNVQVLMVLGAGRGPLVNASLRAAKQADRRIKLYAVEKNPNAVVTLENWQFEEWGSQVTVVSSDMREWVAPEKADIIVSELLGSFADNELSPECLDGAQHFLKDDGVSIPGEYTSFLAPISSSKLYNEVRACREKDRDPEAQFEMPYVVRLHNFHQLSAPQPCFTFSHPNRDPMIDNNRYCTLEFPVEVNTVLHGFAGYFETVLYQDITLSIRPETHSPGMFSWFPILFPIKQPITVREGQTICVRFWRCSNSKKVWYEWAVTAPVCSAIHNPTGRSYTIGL
T1 sequence (Q9BQA1 whole entry partner): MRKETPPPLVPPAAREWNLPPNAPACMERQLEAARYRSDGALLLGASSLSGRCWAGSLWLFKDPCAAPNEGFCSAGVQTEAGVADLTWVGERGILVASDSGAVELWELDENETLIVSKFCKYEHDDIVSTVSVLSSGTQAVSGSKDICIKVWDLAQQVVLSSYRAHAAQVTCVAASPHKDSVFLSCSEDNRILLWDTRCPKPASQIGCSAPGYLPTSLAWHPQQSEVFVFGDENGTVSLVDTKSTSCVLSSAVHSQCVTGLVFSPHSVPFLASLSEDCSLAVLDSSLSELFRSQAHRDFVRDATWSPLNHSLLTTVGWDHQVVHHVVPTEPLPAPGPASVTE

SMILES	IC50 [1]	IC50 (PRMT5 [2])	IC50 [3]	MTAP Intact/Deleted Ratio [3]	IC50 (PRMT5 [4])	IC50 (PRMT5 [5])	SAM/MTA Ratio (PRMT5 [5])
COc1ccc(C(=O)N2CCc3cc(C(=O)NC[C@@H](O)[C@@H]4Cc5ccc(OCc6ocnc6C)cc5CN4)ccc3C2)cc1 [Compound 21, N—((R)-2-hydroxy-2-((S)-7-((4-methyloxazol-5-yl)methoxy)-1,2,3,4-tetrahydroisoquinolin-3-yl)ethyl)-2-(4-methoxybenzoyl)-1,2,3,4-tetrahydroisoquinoline-6-carboxamide]	1000 to 10000 nM	50 to 500 nM	< 1000 nM	A* (an IC50 ratio greater than or equal to 10 fold between the IC50 in the HAP1 MTAP-intact cell line and the HAP1 MTAP-deleted cell line)	50 to 500 nM	< 50 nM	A (a Ki ratio greater than or equal to 10 fold between the Ki in the presence of SAM and the Ki in the presence of MTA)
Cc1ncoc1COc1ccc2c(c1)CN[C@H]([C@H](O)CNC(=O)c1ccc(OC3CCN(Cc4ccncc4)CC3)cc1)C2 [Compound 23, N—((R)-2-hydroxy-2-((S)-7-((4-methyloxazol-5-yl)methoxy)-1,2,3,4-tetrahydroisoquinolin-3-yl)ethyl)-4-((1-(pyridin-4-ylmethyl)piperidin-4-yl)oxy)benzamide]	< 1000 nM	50 to 500 nM	< 1000 nM	B* (an IC50 ratio greater than or equal to 3 fold but lower than 10 fold between the IC50 in the HAP1 MTAP-intact cell line and the HAP1 MTAP-deleted cell line)	50 to 500 nM	< 50 nM	A (a Ki ratio greater than or equal to 10 fold between the Ki in the presence of SAM and the Ki in the presence of MTA)
CCN(C)c1cc(C(=O)NC[C@@H](O)[C@@H]2Cc3ccc(OCc4ocnc4C)cc3CN2)cc(NC2CCC2)n1 [Compound 24, 2-(cyclobutylamino)-6-(ethyl(methyl)amino)-N—((R)-2-hydroxy-2-((S)-7-((4-methyloxazol-5-yl)methoxy)-1,2,3,4-tetrahydroisoquinolin-3-yl)ethyl)isonicotinamide]	≥ 10000 nM	50 to 500 nM	< 1000 nM	A* (an IC50 ratio greater than or equal to 10 fold between the IC50 in the HAP1 MTAP-intact cell line and the HAP1 MTAP-deleted cell line)	50 to 500 nM	50 to 500 nM	A (a Ki ratio greater than or equal to 10 fold between the Ki in the presence of SAM and the Ki in the presence of MTA)
Cc1ncoc1COc1ccc2c(c1)CN[C@H]([C@H](O)CNC(=O)c1cccc(-c3ccccn3)c1)C2 [Compound 25, N—((R)-2-hydroxy-2-((S)-7-((4-methyloxazol-5-yl)methoxy)-1,2,3,4-tetrahydroisoquinolin-3-yl)ethyl)-3-(pyridin-2-yl)benzamide]	≥ 10000 nM	≥ 5000 nM	1000 to 10000 nM	C* (an IC50 ratio of less than 3 fold between the IC50 in the HAP1 MTAP-intact cell line and the HAP1 MTAP-deleted cell line)	50 to 500 nM	50 to 500 nM	A (a Ki ratio greater than or equal to 10 fold between the Ki in the presence of SAM and the Ki in the presence of MTA)
COc1cc(C(=O)NC[C@@H](O)[C@@H]2Cc3ccc(OCc4ocnc4C)cc3CN2)cc(NC2CCC2)n1 [Compound 26, 2-(cyclobutylamino)-N—((R)-2-hydroxy-2-((S)-7-((4-methyloxazol-5-yl)methoxy)-1,2,3,4-tetrahydroisoquinolin-3-yl)ethyl)-6-methoxyisonicotinamide]	< 1000 nM	50 to 500 nM	< 1000 nM	C* (an IC50 ratio of less than 3 fold between the IC50 in the HAP1 MTAP-intact cell line and the HAP1 MTAP-deleted cell line)	50 to 500 nM	< 50 nM	A (a Ki ratio greater than or equal to 10 fold between the Ki in the presence of SAM and the Ki in the presence of MTA)
Cc1ncoc1COc1ccc2c(c1)CN[C@H]([C@H](O)CNC(=O)c1cc(NC3CCC3)ncc1F)C2 [Compound 27, 2-(cyclobutylamino)-5-fluoro-N—((R)-2-hydroxy-2-((S)-7-((4-methyloxazol-5-yl)methoxy)-1,2,3,4-tetrahydroisoquinolin-3-yl)ethyl)isonicotinamide]	1000 to 10000 nM	500 to 5000 nM	< 1000 nM	A* (an IC50 ratio greater than or equal to 10 fold between the IC50 in the HAP1 MTAP-intact cell line and the HAP1 MTAP-deleted cell line)	50 to 500 nM	50 to 500 nM	A (a Ki ratio greater than or equal to 10 fold between the Ki in the presence of SAM and the Ki in the presence of MTA)
Cc1ncoc1COc1ccc2c(c1)CN[C@H]([C@H](O)CNC(=O)c1cccc(NC3CCC3)c1)C2 [Compound 28, 3-(cyclobutylamino)-N—((R)-2-hydroxy-2-((S)-7-((4-methyloxazol-5-yl)methoxy)-1,2,3,4-tetrahydroisoquinolin-3-yl)ethyl)benzamide]	1000 to 10000 nM	50 to 500 nM	< 1000 nM	A* (an IC50 ratio greater than or equal to 10 fold between the IC50 in the HAP1 MTAP-intact cell line and the HAP1 MTAP-deleted cell line)	50 to 500 nM	< 50 nM	A (a Ki ratio greater than or equal to 10 fold between the Ki in the presence of SAM and the Ki in the presence of MTA)
CC(=O)N1CCN(c2cc(C(=O)NC[C@@H](O)[C@@H]3Cc4ccc(OCc5ocnc5C)cc4CN3)cc(NC3CCC3)n2)CC1 [Compound 29, 2-(4-acetylpiperazin-1-yl)-6-(cyclobutylamino)-N—((R)-2-hydroxy-2-((S)-7-((4-methyloxazol-5-yl)methoxy)-1,2,3,4-tetrahydroisoquinolin-3-yl)ethyl)isonicotinamide]	1000 to 10000 nM	50 to 500 nM	< 1000 nM	A* (an IC50 ratio greater than or equal to 10 fold between the IC50 in the HAP1 MTAP-intact cell line and the HAP1 MTAP-deleted cell line)	50 to 500 nM	< 50 nM	A (a Ki ratio greater than or equal to 10 fold between the Ki in the presence of SAM and the Ki in the presence of MTA)
Cc1ncoc1COc1ccc2c(c1)CN[C@H]([C@H](O)CNC(=O)c1cc(NC3CCC3)nc(N3CCN(C(C)C)CC3)c1)C2 [Compound 30, 2-(cyclobutylamino)-N—((R)-2-hydroxy-2-((S)-7-((4-methyloxazol-5-yl)methoxy)-1,2,3,4-tetrahydroisoquinolin-3-yl)ethyl)-6-(4-isopropylpiperazin-1-yl)isonicotinamide]	≥ 10000 nM	50 to 500 nM	≥ 10000 nM	C* (an IC50 ratio of less than 3 fold between the IC50 in the HAP1 MTAP-intact cell line and the HAP1 MTAP-deleted cell line)	50 to 500 nM	< 50 nM	A (a Ki ratio greater than or equal to 10 fold between the Ki in the presence of SAM and the Ki in the presence of MTA)
Cc1ncoc1COc1ccc2c(c1)CN[C@H]([C@H](O)CNC(=O)c1cc(NC3CCC3)nc(N3CCCCC3)c1)C2 [Compound 31, 2-(cyclobutylamino)-N—((R)-2-hydroxy-2-((S)-7-((4-methyloxazol-5-yl)methoxy)-1,2,3,4-tetrahydroisoquinolin-3-yl)ethyl)-6-(piperidin-1-yl)isonicotinamide]	< 1000 nM	50 to 500 nM	< 1000 nM	C* (an IC50 ratio of less than 3 fold between the IC50 in the HAP1 MTAP-intact cell line and the HAP1 MTAP-deleted cell line)	50 to 500 nM	50 to 500 nM	A (a Ki ratio greater than or equal to 10 fold between the Ki in the presence of SAM and the Ki in the presence of MTA)
Cc1ncoc1COc1ccc2c(c1)CN[C@H]([C@H](O)CNC(=O)c1cc(NC3CCC3)ncn1)C2 [Compound 32, 6-(cyclobutylamino)-N—((R)-2-hydroxy-2-((S)-7-((4-methyloxazol-5-yl)methoxy)-1,2,3,4-tetrahydroisoquinolin-3-yl)ethyl)pyrimidine-4-carboxamide]	1000 to 10000 nM	500 to 5000 nM	< 1000 nM	B* (an IC50 ratio greater than or equal to 3 fold but lower than 10 fold between the IC50 in the HAP1 MTAP-intact cell line and the HAP1 MTAP-deleted cell line)	50 to 500 nM	< 50 nM	A (a Ki ratio greater than or equal to 10 fold between the Ki in the presence of SAM and the Ki in the presence of MTA)
COCCN(C)c1cc(C(=O)NC[C@@H](O)[C@@H]2Cc3ccc(OCc4ocnc4C)cc3CN2)cc(NC2CCC2)n1 [Compound 33, 2-(cyclobutylamino)-N—((R)-2-hydroxy-2-((S)-7-((4-methyloxazol-5-yl)methoxy)-1,2,3,4-tetrahydroisoquinolin-3-yl)ethyl)-6-((2-methoxyethyl)(methyl)amino)isonicotinamide]	1000 to 10000 nM	50 to 500 nM	< 1000 nM	B* (an IC50 ratio greater than or equal to 3 fold but lower than 10 fold between the IC50 in the HAP1 MTAP-intact cell line and the HAP1 MTAP-deleted cell line)	50 to 500 nM	50 to 500 nM	A (a Ki ratio greater than or equal to 10 fold between the Ki in the presence of SAM and the Ki in the presence of MTA)
